tested on: wild-type progesterone receptor (pSG5-Gal4-DBD-PR) and its mutants; type: cell-based; settings: not given

Structure (SMILES) | activity in PR mutants as compared to wild-type PR
C[C@@H]1C[C@H]2[C@@H]3CCC4=CC(=O)C=C[C@]4(C)[C@@]3(F)[C@@H](O)C[C@]2(C)[C@@]1(O)C(=O)CO [DEX, Dexamethasone] | lowered below DMSO control by most mutations
CC(=O)[C@H]1CC[C@H]2[C@@H]3CCC4=CC(=O)CC[C@]4(C)[C@H]3CC[C@]12C [STR, Progesterone] | lowered in all mutants

same assay, conditions: HeLa, Gal4-DBD-PR LBD mutants; ligand 10 μM

Structure (SMILES) | activity in PR mutants as compared to wild-type PR, high ligand concentration
C[C@]12CCC(=O)C=C1CC[C@@H]1[C@@H]2[C@@H](O)C[C@]2(C=O)[C@@H](C(=O)CO)CC[C@@H]12 [AS4, Aldosterone] | reduced activity
C[C@]12CCC(=O)C[C@@H]1CC[C@@H]1[C@@H]2CC[C@]2(C)[C@@H](O)CC[C@@H]12 [DHT, Dihydrotestosterone] | reduced activity
C[C@]12CCC(=O)C=C1CC[C@@H]1[C@@H]2[C@@H](O)C[C@@]2(C)[C@H]1CC[C@]2(O)C(=O)CO [HCY, Cortisol] | reduced activity
C[C@]12C=CC(=O)C=C1CC[C@@H]1[C@@H]2C(=O)C[C@@]2(C)[C@H]1CC[C@]2(O)C(=O)CO [PDN, Prednisone] | additional reduction

Reference: article PMC11151858 (RSC Chemical Biology, 2024)
